Data: paper PMC6367069 (Rapid communications in mass spectrometry : RCM, 2019)
Read-outs that look alike come from different tables or passages of the source.

Assays:
PPARγ [1] = details: endogenous ligand of PPARγ; cited from earlier work
PPARγ [2] = target: T1, PPARγ (Homo sapiens, UniProt P37231); details: for binding to immobilized PPARγ (SPR binding analysis): 50 μM and 100 μM analyte, 25 °C; for Kd: single cycle kinetics, heterogeneous ligand model
T1 sequence (P37231 1-505): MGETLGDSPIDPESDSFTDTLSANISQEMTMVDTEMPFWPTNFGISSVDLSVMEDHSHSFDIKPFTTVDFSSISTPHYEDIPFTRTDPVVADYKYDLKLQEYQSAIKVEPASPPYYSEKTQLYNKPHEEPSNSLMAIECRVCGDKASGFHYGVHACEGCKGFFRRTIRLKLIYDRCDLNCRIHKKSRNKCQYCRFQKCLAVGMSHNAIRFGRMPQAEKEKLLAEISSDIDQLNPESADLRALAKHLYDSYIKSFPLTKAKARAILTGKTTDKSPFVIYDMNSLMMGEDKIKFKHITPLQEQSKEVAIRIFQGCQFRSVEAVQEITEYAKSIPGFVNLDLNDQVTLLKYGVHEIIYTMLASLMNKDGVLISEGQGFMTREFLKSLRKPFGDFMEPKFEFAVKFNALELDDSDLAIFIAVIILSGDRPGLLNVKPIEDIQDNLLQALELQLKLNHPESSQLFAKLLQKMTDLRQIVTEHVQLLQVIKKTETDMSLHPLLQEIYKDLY

| SMILES | EC50 (PPARγ [1]) [µM] | binding to immobilized PPARγ (SPR binding analysis) (PPARγ [2]) | Kd (PPARγ [2]; read-out: Kd1) [µM] | Kd (PPARγ [2]; read-out: Kd2) [µM] |
| --- | --- | --- | --- | --- |
| CCCCC/C=C/C=C1/C(=O)C=C[C@@H]1C/C=C\CCCC(=O)O [15Δ-PGJ2, 15-deoxy-delta-12,14-prostaglandin J2] | 2 | direct binding | 10 | 311 |
| CCCCC(CC)COC(=O)c1ccccc1C(=O)OCC(CC)CCCC (centres unmarked) [DEHP, di-(2-ethylhexyl)phthalate] |  | almost no detectable binding |  |  |
